In ChEMBL document CHEMBL3507680, “University of Dundee, Gates Library screen for HepG2 cell viability”:

Assay: Human HepG2 cell viability assay in 384 well format
Assay type: toxicity, cell-based
Set-up: dose 125 nL, time 70.5 hour; concentration not given beside the values
Conditions: HepG2 cells, read-out: Inhibition

| Compound | cytotoxicity at 70.5 h |
| --- | --- |
| Cc1nc(NC(=O)C2CCCN(C(N)=O)C2)sc1-c1ccccc1 (stereo unspecified) | 28.7% |
| COCCCNC(=O)Cn1nnc(-c2cc3ccccc3o2)n1 | -13.2% |
| Cc1ccc(Cl)cc1S(=O)(=O)NCc1cnc(N(C)C)n1C | -11.7% |
| Cc1c(Cl)cccc1S(=O)(=O)NCc1cnc(N(C)C)n1C | -8.26% |
| Nc1cc2c(nn1)CCN(C(=O)c1ccc(-c3ccco3)[nH]c1=O)C2 | -1.23% |
| Cc1nc(C)c(CNCC2CCCn3ccnc32)s1 (stereo unspecified) | 15.5% |
| CC(NC(=O)N1CCC[C@H]1CO)c1noc(-c2ccccc2)n1 (stereo partly specified) | -3.8% |
| Cc1cccc(N(CC(=O)N2CCCCC2)Cc2nc(=O)[nH][nH]2)c1 | -0.474% |
| COC(=O)N1CCCN(C(=O)NC2CCc3ccccc3C2)CC1 (stereo unspecified) | -1.7% |
| Cc1nsc(N2CCN(C(=O)Nc3cccc(F)c3)CC2)n1 | 13.5% |
| CC1CCCN(c2ccccc2OCC(=O)NC2CC2)C1 (stereo unspecified) | 2.91% |
| CCNC(=O)COc1ccccc1N1CCCC(C)C1 (stereo unspecified) | -1.31% |
| CN(Cc1ccccc1F)C(=O)c1ccoc1 | -4.97% |
| OC(CN1CCCc2cc(OC(F)F)ccc21)Cn1cccn1 (stereo unspecified) | 12.9% |
| Cc1csc(C(C)(C)NCC(=O)N2CCCC(C(N)=O)C2)n1 (stereo unspecified) | 6.15% |
| OC(CN1CCCc2ccc(F)cc21)Cn1cccn1 (stereo unspecified) | 7.05% |
| C=C(C)COCCNC(=O)N1CCc2c(cccc2OC)C1 | 7.17% |
| CC(Cn1ccnc1)NS(=O)(=O)Cc1ccc(F)cc1 (stereo unspecified) | -2.62% |
| Cc1cc(Br)c(O)c(C(=O)N2CCC(CN3CCCCCC3)CC2)c1 | -5.82% |
| Clc1ccc(CN2CCN(Cn3nccc3-c3cccnc3)CC2)s1 | 6.58% |
| COC(=O)c1cccc(S(=O)(=O)NC(=O)c2ccccc2F)c1 | -5.66% |
| Cc1nc(C(=O)Nc2cc(N3CCNC3=O)ccc2Cl)cs1 | -2.48% |
| N#Cc1c(F)cccc1NCCCOCC1CCOCC1 | -3.66% |

| Compound | cytotoxicity at 70.5 h |
| --- | --- |
| CSc1ccc(OC(C)C(=O)Nc2cc[nH]n2)cc1 (stereo unspecified) | -2.7% |
| Cc1noc2ncc(S(=O)(=O)Nc3cc(C(C)(C)C)n[nH]3)cc12 | -4.7% |
| CSc1ccc(OC(C)C(=O)Nc2c(C)n[nH]c2C)cc1 (stereo unspecified) | -3.26% |
| O=C(NS(=O)(=O)c1cccc(F)c1)c1ccccc1F | 13.1% |
| CC(C)(C(=O)NCc1n[nH]c(=O)[nH]1)c1ccc(F)cc1 | -2.39% |
| COCC(NC(=O)NCc1ccc(C)c(F)c1)c1ccco1 (stereo unspecified) | 1.44% |
| COCC(NC(=O)NCc1cccc(C#N)c1)c1ccco1 (stereo unspecified) | -2.38% |
| CCNC(=O)C1CCCN(c2ccc(C#N)cc2C(F)(F)F)C1 (stereo unspecified) | -4.1% |
| COC(C)(C)CC(C)NC(=O)Nc1ccccn1 (stereo unspecified) | -2.34% |
| Cc1csc(C(C)(C)NCC(=O)N2CCCC(C(F)(F)F)C2)n1 (stereo unspecified) | 8.68% |
| CC(C)OCCOCC(O)CN(C)C(=O)Nc1ccc(F)cc1Cl (stereo unspecified) | -2.75% |
| CC(C)(C)C(=O)N1CCN(Cn2nccc2-c2cccnc2)CC1 | -3.16% |
| CC(C)C(C)(O)CNC(=O)Nc1ccccn1 (stereo unspecified) | -1.52% |
| CCC[C@@H](NC(N)=O)C(=O)N1CCc2ccccc2CC1 | -3.57% |
| CN(CC1CC1)C(=O)Cc1csc(-c2ncccn2)n1 | 0.625% |
| NC(=O)CN(C(=O)c1cccc(C(F)(F)F)c1)C1CCCC1 | -6% |
| COc1ccc(OC)c(CCNc2ncc(S(N)(=O)=O)s2)c1 | 0.207% |
| COc1ccc(OC)c(CN(C)c2ncc(S(N)(=O)=O)s2)c1 | -10.9% |
| CS(=O)(=O)c1nnc(NC(=O)CCc2cccs2)[nH]1 | 17.8% |
| CN(CCn1cccn1)S(=O)(=O)c1ccc(C#N)cc1 | -8.98% |
| CCS(=O)(=O)CCNC(=O)NCc1ccccc1-n1cccn1 | 2.95% |
| CSC(CNS(=O)(=O)c1cnn(C)c1)c1cccc(Cl)c1 (stereo unspecified) | -6.72% |
| CC(C)Oc1cccc(CC(=O)N(CC(N)=O)C2CCCC2)c1 | -6.57% |

| Compound | cytotoxicity at 70.5 h |
| --- | --- |
| CCOc1ccc(CN(C)C(=O)COc2ccc(C)nc2)cc1 | -8.96% |
| COc1ccccc1C1(CNc2snc(Cl)c2C#N)CCCC1 | 19.8% |
| CCCn1c(O)nnc1SCC1OCCc2ccccc21 (stereo unspecified) | -7.64% |
| FC(F)(F)c1cc(NCCCn2cccn2)nc(-c2cccnc2)n1 | 22.2% |
| Cn1c(N)nnc1SCC1OCCc2ccccc21 (stereo unspecified) | 6.39% |
| Cn1cccc(NC(=O)N2CCC(CSc3ccccc3)C2)c1=O (stereo unspecified) | -13.5% |
| Cc1cc(NCc2csc(-c3ccco3)n2)ccc1C(N)=O | -6.99% |
| O=C(N1CCC(O)(C(F)(F)F)C1)C1(c2ccc(Cl)cc2)CC1 (stereo unspecified) | 18.9% |
| CC(C)CC(C(=O)N1CCCSCC1)N1CCCCC1=O (stereo unspecified) | -3.18% |
| Cc1ccc(CNc2cnn(CC(F)F)c2)cc1C | -0.638% |
| CN1CCN(S(=O)(=O)c2cncc(F)c2)c2ccccc2C1 | -11.8% |
| Cc1cc(F)c(S(=O)(=O)N(C)CCn2cccn2)cc1F | -9.11% |
| Cc1ccc(OCc2nnc(SCC3CCCN(C)C3)o2)cc1 (stereo unspecified) | -8.56% |
| O=C(Cc1ccccc1F)NCC1CCN(CCN2CCOCC2)C1 (stereo unspecified) | 2.01% |
| CCc1nnsc1C(=O)N(C)Cc1ccco1 | -1.63% |
| O=C(NCC1CCOC1)N1CCN(c2ncccn2)CC1 (stereo unspecified) | 0.214% |
| CCNC(=O)CNS(=O)(=O)c1cc(Br)ccc1F | -2.68% |
| CC1COCCN1C(=O)NCCn1ccnc1 (stereo unspecified) | -3.25% |
| Cc1cc(C(=O)N2CCn3cc(CN4CCCCC4)nc3C2)no1 | -9.93% |
| Cc1cc(C(=O)N2CCn3cc(CN(C)C)nc3C2)no1 | -7.02% |
| O=C(c1ccccc1F)N1CC[C@@H]2CN(c3ncccn3)CCO[C@@H]2C1 | 4.95% |
| CN1CCC2(CC1)OC(C(=O)NCc1cccnc1)Cn1ccnc12 (stereo unspecified) | -11.2% |
| O=C(c1cnccn1)N1CCc2ncc(CN3CCOCC3)n2CC1 | -8.64% |

| Compound | cytotoxicity at 70.5 h |
| --- | --- |
| Cc1cccc(C(=O)N2CC[C@@H]3CN(c4ncccn4)CCO[C@@H]3C2)c1 | -9.91% |
| CS(=O)(=O)NCc1nnc2n1CCN(Cc1nccs1)C2 | 5.64% |
| O=C(Nc1cccnc1)[C@H]1C[C@@H]2CN(S(=O)(=O)C3CC3)C[C@H]1O2 | -4.16% |
| CN(C)S(=O)(=O)N1C[C@H]2C[C@H](C(=O)Nc3cccnc3)[C@@H](C1)O2 | -8.64% |
| CCCS(=O)(=O)N1C[C@H]2C[C@H](C(=O)Nc3cccnc3)[C@@H](C1)O2 | -4.17% |
| CS(=O)(=O)NCc1nnc2n1CCN(Cc1ccc(F)cc1)C2 | -3.88% |
| Cc1cccc(C(=O)N2C[C@@H]3OCCN(CCN4CCCC4)[C@@H]3C2)n1 | -7.28% |
| CC1=N[C@@]2(CC[C@@H]3CN(S(=O)(=O)C4CC4)C[C@@H]32)C(=O)N1CC(C)C | 10.8% |
| Cc1nc(CNC(C)c2cccc(N3CCCC3=O)c2)cs1 (stereo unspecified) | -7.67% |
| CCc1nc(CNC(C)c2cccc(N3CCCC3=O)c2)cs1 (stereo unspecified) | -12.3% |
| COc1cccc(CNc2c(C)nn(C(C)C)c2C)c1 | -2.2% |
| CC(C)NCc1nc(-c2ccc3c(c2)OCO3)c[nH]1 | -11.7% |
| Cn1cc(CN2CCC3(CC2)CC(Nc2nccs2)CO3)cn1 (stereo unspecified) | 16.9% |
| Cn1cc(C2COC3(CCN(C(=O)c4ccccn4)CC3)C2)cn1 (stereo unspecified) | -12.1% |
| O=C(CC1CC1)N1CCc2ncc(CN3CCOCC3)n2CC1 | -13.3% |
| O=C(N1CCOCC1)N1CCc2ncc(CN3CCCCC3)n2CC1 | -12.1% |
| O=C(NCC1CC1)[C@@H]1CCO[C@@H]2CCN(Cc3ccsc3)C[C@H]21 | -10.2% |
| COc1ccc(CN2CC[C@@H](O)[C@@H]2Cc2cnn(C)c2)cc1 | 21.7% |
| O=C([C@H]1C[C@H]2OCC[C@H]2N(CCc2ccccc2)C1)N1CCCO1 | -3.87% |
| Cn1cc(C[C@H]2[C@H](O)CCN2Cc2ccc(F)cc2)cn1 | 4.14% |
| COc1ccc(CN2CC[C@H](O)[C@@H]2Cc2cnn(C)c2)cc1 | -11.4% |
| Cc1cncc(C(=O)N2CC[C@@]3(C[C@H](NS(C)(=O)=O)CCO3)C2)c1 | -7.39% |
| O=C(C1CCOCC1)N1CCc2onc(COc3cccnc3)c2C1 | 0.0469% |

| Compound | cytotoxicity at 70.5 h |
| --- | --- |
| O=C(c1ccncc1F)N1CCc2onc(COc3cccnc3)c2C1 | -6.64% |
| O=S(=O)(c1cccs1)N1CCCC2(COCCN(c3cccnc3)C2)C1 (stereo unspecified) | -1.65% |
| O=C(N1CCCC1)N1CCc2onc(COc3cccnc3)c2C1 | -3.27% |
| Cn1cc(C[C@H]2[C@H](O)CCN2CC2CCOCC2)cn1 | -6.28% |
| O=C([C@H]1C[C@H]2OCC[C@H]2N(CC2CCOCC2)C1)N1CCCCO1 | -7.91% |
| CNC(=O)C1Cn2ccnc2C2(CCN(Cc3cccs3)CC2)O1 (stereo unspecified) | 11.6% |
| Cc1ccc(C(=O)N2CC[C@]3(C[C@@H](OCc4ccccn4)CO3)C2)nc1 | 12.9% |
| O=C(NCc1ccccn1)[C@H]1COC[C@H]2CN(CC3CC3)C[C@H]21 | -10.6% |
| O=C(NCc1ccccn1)[C@@H]1COC[C@H]2CN(C3CCC3)C[C@H]21 | -13.4% |
| O=C(NC1CC1)[C@H]1C[C@H]2OCC[C@H]2N(Cc2ccc3ccccc3n2)C1 | -4.59% |
| Cc1ccc(O[C@@H]2C[C@H]3CN(C(=O)Cc4ccccn4)CCN3C2)cc1 | 17.9% |
| Cc1occc1C(=O)N1C[C@@H]2OCCN(CCN3CCCC3)[C@@H]2C1 | -3.12% |
| CN(C)[C@@H]1CCN(CC2CC2)[C@H]1Cc1cnn(C)c1 | 0.964% |
| CN1CCN(C2COC3(CCN(Cc4cccs4)CC3)C2)CC1 (stereo unspecified) | 4.27% |
| c1csc(CN2CCCC3(COCCN(c4cnccn4)C3)C2)c1 (stereo unspecified) | -6.31% |
| O=C(Cc1ccccn1)N1CCN2C[C@H](Oc3cncnc3)C[C@H]2C1 | -7.37% |
| Cc1cc(CN2CC[C@H]3C[C@H](C(=O)Nc4cccnc4C)O[C@@H]3C2)no1 | 12.4% |
| CNC(=O)C1Cn2ccnc2C2(CCN(Cc3ccncc3)CC2)O1 (stereo unspecified) | -10.9% |
| CCOCc1ccc(CNC2=NCCCN2)cc1 | -2.49% |
